Measurements: ChEMBL document CHEMBL5346892, “Design and synthesis of benzochromene derivatives as AcrB inhibitors for the reversal of bacterial multidrug resistance” (Eur J Med Chem, 2023)
Calls of active or inactive are those of the source. The calls are words filed in the database; no cut-off is given here.

Experiments:
Escherichia coli [1] = test: Synergistic antibacterial activity against wild type Escherichia coli BW25113 assessed as levofloxacin MIC at 64 microg/ml incubated for 18 hrs by broth dilution assay; format: functional; conditions: dose 64 µg/ml
Escherichia coli [2] = test: Synergistic antibacterial activity against wild type Escherichia coli BW25113 assessed as levofloxacin MIC at 128 microg/ml incubated for 18 hrs by broth dilution assay; format: functional; conditions: dose 128 µg/ml
Escherichia coli [3] = test: Synergistic antibacterial activity against wild type Escherichia coli BW25113 assessed as erythromycin MIC at 64 microg/ml incubated for 18 hrs in presence of colistin by broth dilution assay; format: functional; conditions: dose 64 µg/ml
Escherichia coli [4] = test: Synergistic antibacterial activity against wild type Escherichia coli BW25113 assessed as minocycline MIC at 64 microg/ml incubated for 18 hrs by broth dilution assay; format: functional; conditions: dose 64 µg/ml
Escherichia coli [5] = test: Synergistic antibacterial activity against wild type Escherichia coli BW25113 assessed as minocycline MIC at 32 microg/ml incubated for 18 hrs by broth dilution assay; format: functional; conditions: dose 32 µg/ml
Escherichia coli [6] = test: Synergistic antibacterial activity against wild type Escherichia coli BW25113 assessed as minocycline MIC at 64 microg/ml incubated for 18 hrs in presence of colistin by broth dilution assay; format: functional; conditions: dose 64 µg/ml
Escherichia coli [7] = test: Synergistic antibacterial activity against wild type Escherichia coli BW25113 assessed as erythromycin MIC at 64 microg/ml incubated for 18 hrs by broth dilution assay; format: functional; conditions: dose 64 µg/ml
Escherichia coli [8] = test: Synergistic antibacterial activity against wild type Escherichia coli BW25113 assessed as minocycline MIC at 32 microg/ml incubated for 18 hrs in presence of colistin by broth dilution assay; format: functional; conditions: dose 32 µg/ml
Escherichia coli [9] = test: Synergistic antibacterial activity against wild type Escherichia coli BW25113 assessed as minocycline MIC at 8 microg/ml incubated for 18 hrs by broth dilution assay; format: functional; conditions: dose 8 µg/ml
Escherichia coli [10] = test: Synergistic antibacterial activity against wild type Escherichia coli BW25113 assessed as minocycline MIC at 16 microg/ml incubated for 18 hrs in presence of colistin by broth dilution assay; format: functional; conditions: dose 16 µg/ml
[11] = Hemolytic activity in mouse RBC assessed as hemolysis at 4 to 256 microg/ml incubated for 1 hr by microplate reader analysis; format: toxicity, cell-based, Erythrocyte; conditions: mouse red blood cells (erythrocytes), at 4 to 256 µg/mL, dose 4-256 µg/ml, read-out: Activity
Escherichia coli [12] = test: Synergistic antibacterial activity against wild type Escherichia coli BW25113 assessed as erythromycin MIC at 32 microg/ml incubated for 18 hrs by broth dilution assay; format: functional; conditions: dose 32 µg/ml
Escherichia coli [13] = test: Synergistic antibacterial activity against wild type Escherichia coli BW25113 assessed as levofloxacin MIC at 32 microg/ml incubated for 18 hrs in presence of colistin by broth dilution assay; format: functional; conditions: dose 32 µg/ml
Escherichia coli [14] = test: Synergistic antibacterial activity against wild type Escherichia coli BW25113 assessed as levofloxacin MIC at 8 microg/ml incubated for 18 hrs by broth dilution assay; format: functional; conditions: dose 8 µg/ml
Escherichia coli [15] = test: Synergistic antibacterial activity against wild type Escherichia coli BW25113 assessed as levofloxacin MIC at 8 microg/ml incubated for 18 hrs in presence of colistin by broth dilution assay; format: functional; conditions: dose 8 µg/ml
Escherichia coli [16] = test: Synergistic antibacterial activity against wild type Escherichia coli BW25113 assessed as erythromycin MIC at 16 microg/ml incubated for 18 hrs by broth dilution assay; format: functional; conditions: dose 16 µg/ml
Escherichia coli [17] = test: Synergistic antibacterial activity against wild type Escherichia coli BW25113 assessed as minocycline MIC at 8 microg/ml incubated for 18 hrs in presence of colistin by broth dilution assay; format: functional; conditions: dose 8 µg/ml
Escherichia coli [18] = test: Synergistic antibacterial activity against wild type Escherichia coli BW25113 assessed as erythromycin MIC at 128 microg/ml incubated for 18 hrs by broth dilution assay; format: functional; conditions: dose 128 µg/ml
Escherichia coli [19] = test: Synergistic antibacterial activity against wild type Escherichia coli BW25113 assessed as erythromycin MIC at 32 microg/ml incubated for 18 hrs in presence of colistin by broth dilution assay; format: functional; conditions: dose 32 µg/ml
Escherichia coli [20] = test: Synergistic antibacterial activity against wild type Escherichia coli BW25113 assessed as levofloxacin MIC at 64 microg/ml incubated for 18 hrs in presence of colistin by broth dilution assay; format: functional; conditions: dose 64 µg/ml
Escherichia coli [21] = test: Synergistic antibacterial activity against wild type Escherichia coli BW25113 assessed as erythromycin MIC at 8 microg/ml incubated for 18 hrs in presence of colistin by broth dilution assay; format: functional; conditions: dose 8 µg/ml
Cell membrane = test: Induction of inner membrane permeabilization in Escherichia coli BW25113 assessed as increase in fluorescence intensity at 64 microg/ml incubated for 10 mins by DiOC2 dye based fluorimeter analysis; format: subcellular; conditions: dose 64.0 µg/ml
Escherichia coli [22] = test: Synergistic antibacterial activity against wild type Escherichia coli BW25113 assessed as levofloxacin MIC at 32 microg/ml incubated for 18 hrs by broth dilution assay; format: functional; conditions: dose 32 µg/ml
Escherichia coli [23] = test: Synergistic antibacterial activity against wild type Escherichia coli BW25113 assessed as erythromycin MIC at 16 microg/ml incubated for 18 hrs in presence of colistin by broth dilution assay; format: functional; conditions: dose 16 µg/ml
[24] = target: T1, Multidrug efflux pump subunit AcrB (Escherichia coli (strain K12)) (UniProt P31224); test: Inhibition of Escherichia coli BW25113 AcrB assessed as inhibition of nile red efflux at 50 uM incubated for 15 mins
T1 sequence (whole entry): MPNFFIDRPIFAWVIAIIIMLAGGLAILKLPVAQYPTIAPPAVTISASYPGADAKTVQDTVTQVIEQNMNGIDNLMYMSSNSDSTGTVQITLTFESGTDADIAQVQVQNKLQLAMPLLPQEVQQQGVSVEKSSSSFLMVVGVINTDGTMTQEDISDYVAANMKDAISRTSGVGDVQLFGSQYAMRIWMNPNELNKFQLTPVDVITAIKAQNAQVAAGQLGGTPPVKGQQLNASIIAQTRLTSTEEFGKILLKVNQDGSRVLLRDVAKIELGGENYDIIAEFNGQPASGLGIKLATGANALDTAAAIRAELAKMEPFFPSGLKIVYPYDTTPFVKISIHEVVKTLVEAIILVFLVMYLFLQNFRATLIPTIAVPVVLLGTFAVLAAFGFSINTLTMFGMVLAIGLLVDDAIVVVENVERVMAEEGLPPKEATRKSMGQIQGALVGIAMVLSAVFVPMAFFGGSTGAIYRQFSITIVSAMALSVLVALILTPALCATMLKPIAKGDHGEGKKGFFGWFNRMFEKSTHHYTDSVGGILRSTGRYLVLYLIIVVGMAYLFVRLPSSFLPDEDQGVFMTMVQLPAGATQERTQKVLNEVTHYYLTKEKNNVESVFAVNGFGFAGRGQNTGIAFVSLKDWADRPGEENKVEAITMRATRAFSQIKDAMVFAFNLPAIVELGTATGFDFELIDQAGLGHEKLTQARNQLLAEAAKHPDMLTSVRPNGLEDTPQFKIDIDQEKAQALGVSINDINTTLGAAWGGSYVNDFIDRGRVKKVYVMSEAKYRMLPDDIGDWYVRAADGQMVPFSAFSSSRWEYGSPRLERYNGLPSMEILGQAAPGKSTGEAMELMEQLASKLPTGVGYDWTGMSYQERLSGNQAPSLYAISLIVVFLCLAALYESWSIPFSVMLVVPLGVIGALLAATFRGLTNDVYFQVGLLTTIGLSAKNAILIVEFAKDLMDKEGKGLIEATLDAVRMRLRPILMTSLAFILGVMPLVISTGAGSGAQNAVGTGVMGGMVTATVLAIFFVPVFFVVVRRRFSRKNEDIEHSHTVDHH

SMILES	MIC (Escherichia coli [1])	MIC (Escherichia coli [2])	MIC (Escherichia coli [3])	MIC (Escherichia coli [4])	MIC (Escherichia coli [5])	MIC (Escherichia coli [6])	MIC (Escherichia coli [7])	MIC (Escherichia coli [8])	MIC (Escherichia coli [9])	hemolysis at 1 h [11]	MIC (Escherichia coli [12])	MIC (Escherichia coli [13])	MIC (Escherichia coli [14])	MIC (Escherichia coli [15])	MIC (Escherichia coli [16])	MIC (Escherichia coli [17])	MIC (Escherichia coli [18])	MIC (Escherichia coli [20])	MIC (Escherichia coli [21])	MIC (Escherichia coli [22])	further results
CC1(C)CCc2c(C(=O)N3CCOCC3)cc3c(OCCSc4ccc([N+](=O)[O-])cc4)cccc3c2O1	0.016 µg/mL	0.016 µg/mL	4 µg/mL	1 µg/mL	2 µg/mL	0.5 µg/mL	16 µg/mL	1 µg/mL	2 µg/mL	< 5%	16 µg/mL	0.032 µg/mL	0.016 µg/mL	0.032 µg/mL	16 µg/mL	1 µg/mL	16 µg/mL	0.032 µg/mL	8 µg/mL	0.016 µg/mL	MIC (Escherichia coli [10]): 1 µg/mL; MIC (Escherichia coli [19]): 4 µg/mL; Activity (Cell membrane): inactive; MIC (Escherichia coli [23]): 8 µg/mL
CC1(C)CCc2c(C(=O)N3CCOCC3)cc3c(OCCCOc4cccc(C(=O)O)c4)cccc3c2O1	0.016 µg/mL	0.016 µg/mL	4 µg/mL	1 µg/mL	1 µg/mL	0.5 µg/mL	16 µg/mL	0.5 µg/mL	–	< 5%	32 µg/mL	0.016 µg/mL	0.016 µg/mL	0.016 µg/mL	32 µg/mL	0.5 µg/mL	16 µg/mL	0.008 µg/mL	8 µg/mL	0.016 µg/mL	inhibition [24]: Active; MIC (Escherichia coli [10]): 0.5 µg/mL; MIC (Escherichia coli [19]): 4 µg/mL; MIC (Escherichia coli [23]): 4 µg/mL
COc1ccc(OCCCOc2cccc3c4c(c(C(=O)N5CCOCC5)cc23)CCC(C)(C)O4)cc1	0.032 µg/mL	0.032 µg/mL	16 µg/mL	1 µg/mL	2 µg/mL	0.25 µg/mL	16 µg/mL	0.5 µg/mL	2 µg/mL	< 5%	32 µg/mL	0.032 µg/mL	0.032 µg/mL	0.016 µg/mL	32 µg/mL	0.5 µg/mL	8 µg/mL	0.032 µg/mL	16 µg/mL	0.032 µg/mL	inhibition [24]: Active; MIC (Escherichia coli [10]): 0.5 µg/mL; MIC (Escherichia coli [19]): 16 µg/mL; Activity (Cell membrane): inactive; MIC (Escherichia coli [23]): 16 µg/mL
CC1(C)CCc2c(C(=O)N3CCOCC3)cc3c(OCCN4CCN(c5ccccc5)CC4)cccc3c2O1	0.016 µg/mL	0.016 µg/mL	–	2 µg/mL	2 µg/mL	–	32 µg/mL	–	2 µg/mL	< 5%	32 µg/mL	0.032 µg/mL	0.032 µg/mL	0.032 µg/mL	32 µg/mL	0.5 µg/mL	16 µg/mL	0.032 µg/mL	4 µg/mL	0.016 µg/mL	inhibition [24]: Active; Activity (Cell membrane): inactive
